Reference: US8802894B2, “Process for the preparation of aqueous solutions of methylglycine-N,N-diacetic acid trialkali metal salts” (BASF SE, priority 2012, dated 2014)

Assays:
[1] = solubility limit / achievable concentration in water; format: physicochemical
[2] = saturation concentration of aqueous solutions, L-enantiomer versus D,L-racemate; format: physicochemical; settings: aqueous solution
Source text: The L-enantiomer of α-alanine is available at low cost and leads, through Strecker synthesis, as a result of reaction with hydrocyanic acid and formaldehyde in aqueous solution, to L-α-alanine-N,N-diacetonitrile, and saponification thereof with a base leads to aqueous solutions which not only have a higher saturation concentration of the L-enantiomer compared to the D,L-racemate of the MGDA trialkali metal salts, but which also produce a readily crystallizing solid by means of crystallization.

Compound | solubility limit [1] | solubility compared to the racemate [2]
C[C@H](N)C(=O)O [α-alanine] | ca. 18 % by weight | –
methylglycine-N,N-diacetic acid trialkali metal salt [L-MGDA trialkali metal salt] | – | higher
